Assay results taken from patent US7723331B2, “Thienopyrimidine compounds and uses thereof” (AstraZeneca AB, priority 2006, dated 2010).
pIC50: −log10 of the molar value. Each block holds one compound with its values, some of them ahead of it.

Assays:
[1] = biological target: T1, human melanin concentrating hormone receptor 1 (hMCHr1) (Homo sapiens, UniProt Q99705); assay: MCHr1 radioligand binding (125I-MCH displacement); conditions: membranes from CHO-K1 cells expressing hMCHr1, 125I-MCH
T1 construct: purchased Euroscreen; host or cells: CHO-K1
Method: Assays were performed on membranes prepared from CHO-K1 cells expressing the human melanin concentrating hormone receptor 1 (hMCHr1, […] protein; Euroscreen). Assays were performed in a 96-well plate format in a final reaction volume of […] per well. Each well contained 6 μg of membrane proteins diluted in binding buffer (50 mM Tris, 3 mM MgCl2, 0.05% bovine serum albumin and the radioligand ^125I-MCH (IM344 Amersham) was added to give 10 000 cpm (counts per minute) per well. Each well contained 2 μl of the appropriate concentration of competitive antagonist prepared in DMSO or in HOAc and left to stand at 30° C. for 60 minutes. Non-specific binding was determined as that remaining following incubation with 1 μM MCH (Melanin concentrating hormone, H-1482 Bachem). The reaction was terminated by transfer of the reaction to GF/A filters using a Micro96 Harvester (Skatron Instruments, Norway). Filters were washed with assay buffer. Radioligand retained on the filters was quantified using a 1450 Microbeta TRILUX (Wallac, Finland).
Non-specific binding was subtracted from all values determined. Maximum binding was that determined in the absence of any competitor following subtraction of the value determined for non-specific binding. Binding of compounds at various concentrations was plotted according to the equation y=A+((B−A)/1+((C/x)^D))) and IC50 estimated where: […]

[2] = biological target: hERG (Homo sapiens, UniProt Q12809); assay: hERG activity (planar-array-based voltage clamp); assay type: cell-based; conditions: modified method of Kiss et al.
Method: hERG testing was performed using a modified version of the method described by Kiss et al., “High throughput ion-channel pharmacology: planar-array-based voltage clamp.” Assay Drug Dev Technol., 2003, 1, 127-35.

[3] = biological target: T2, recombinant hMCHr1 (Homo sapiens, UniProt Q99705); assay: MCHr1 functional assay ([35S]GTPγS); assay type: biochemical; conditions: hMCHr1 membranes, ED80 concentration of MCH
T2 construct: purchased Euroscreen
Method: Membranes expressing recombinant hMCHr1 (5.45 pmol/mg protein; Euroscreen) were prepared in assay buffer (50 mM HEPES, 100 mM NaCl, 5 mM MgCl2, 1 mM EDTA, 200 μM DTT, 20 μM GDP (Sigma) containing 0.1 μg/ml BSA, pH7.4) before assay. The assays were performed using membranes at 6 μg/well in an assay volume of 200 μL and the appropriate concentrations of compounds prepared in DMSO or in HOAc. The reaction was started by addition of 0.056 nM [^35S]GTPγS (Specific activity >1000 Ci/mmol; Amersham) and an ED80 concentration of MCH (determined for each membrane and each MCH batch). Non-specific binding was determined using 20 μM non-radiolabelled GTPγS. Plates were incubated for 45 min at 30° C. Free and bound GTPγS were separated by filtration binding using GF/B filter mats presoaked in wash buffer (50 mM Tris, 5 mM MgCl2, 50 mM NaCl, pH 7.4) using a Micro96 cell harvester (Skatron Instruments) and the filters then dried at 50° C. before counting using a 1450 Microbeta TRILUX (Wallac).
Data are means±SD for experiments performed in triplicate. IC50 values of antagonists were determined using non-linear regression analysis of concentration response curves using Activity Base.

T2 sequence (Q99705 whole entry): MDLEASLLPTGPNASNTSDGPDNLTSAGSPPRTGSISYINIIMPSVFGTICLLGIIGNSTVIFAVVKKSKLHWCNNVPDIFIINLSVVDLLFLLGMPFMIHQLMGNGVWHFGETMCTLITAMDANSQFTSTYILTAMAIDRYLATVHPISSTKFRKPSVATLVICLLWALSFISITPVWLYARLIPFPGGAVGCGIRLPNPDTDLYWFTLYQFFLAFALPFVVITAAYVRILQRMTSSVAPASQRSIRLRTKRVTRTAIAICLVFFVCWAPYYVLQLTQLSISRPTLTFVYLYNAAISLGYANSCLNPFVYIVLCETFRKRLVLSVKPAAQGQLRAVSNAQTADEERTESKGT
T1 sequence (Q99705 whole entry): as above
Chain of hERG (Q12809 whole entry): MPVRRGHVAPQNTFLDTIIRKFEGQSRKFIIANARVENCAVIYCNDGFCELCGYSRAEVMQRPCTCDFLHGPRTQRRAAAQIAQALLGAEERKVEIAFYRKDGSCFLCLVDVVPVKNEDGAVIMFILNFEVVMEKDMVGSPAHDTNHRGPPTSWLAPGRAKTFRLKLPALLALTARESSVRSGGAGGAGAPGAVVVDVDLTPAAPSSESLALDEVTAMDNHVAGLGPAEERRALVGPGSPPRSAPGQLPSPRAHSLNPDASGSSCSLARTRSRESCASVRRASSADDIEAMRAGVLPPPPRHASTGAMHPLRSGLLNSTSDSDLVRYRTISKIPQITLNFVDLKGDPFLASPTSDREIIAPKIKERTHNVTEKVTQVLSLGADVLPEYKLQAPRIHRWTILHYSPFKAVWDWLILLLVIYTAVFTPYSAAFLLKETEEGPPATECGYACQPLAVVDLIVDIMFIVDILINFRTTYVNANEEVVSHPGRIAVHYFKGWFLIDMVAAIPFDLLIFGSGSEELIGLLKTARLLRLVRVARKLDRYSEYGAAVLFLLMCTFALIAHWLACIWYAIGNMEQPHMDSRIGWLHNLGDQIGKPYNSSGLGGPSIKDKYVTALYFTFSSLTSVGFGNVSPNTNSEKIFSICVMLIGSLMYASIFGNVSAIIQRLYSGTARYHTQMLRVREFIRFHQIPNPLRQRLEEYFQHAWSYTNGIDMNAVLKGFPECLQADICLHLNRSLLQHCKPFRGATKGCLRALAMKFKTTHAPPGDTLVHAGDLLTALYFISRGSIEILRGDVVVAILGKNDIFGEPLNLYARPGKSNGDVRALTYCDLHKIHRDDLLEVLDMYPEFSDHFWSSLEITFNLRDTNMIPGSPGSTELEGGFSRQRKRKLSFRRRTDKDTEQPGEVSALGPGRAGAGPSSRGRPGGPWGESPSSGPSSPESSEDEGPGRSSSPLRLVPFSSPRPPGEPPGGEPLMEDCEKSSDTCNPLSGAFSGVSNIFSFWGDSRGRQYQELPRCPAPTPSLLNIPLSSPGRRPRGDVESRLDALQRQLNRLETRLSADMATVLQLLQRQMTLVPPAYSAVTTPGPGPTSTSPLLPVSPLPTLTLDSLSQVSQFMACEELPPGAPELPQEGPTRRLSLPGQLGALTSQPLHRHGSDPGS

SMILES: CN1[C@@H]2CC[C@H]1C[C@@H](Oc1cccc(Cn3cnc4cc(-c5ccc(Cl)cc5)sc4c3=O)c1)C2 [Example 1, 6-(4-Chlorophenyl)-3-(3-{[(3-endo)-8-methyl-8-azabicyclo[3.2.1]oct-3-yl]oxy}benzyl)thieno[3,2-d]pyrimidin-4(3H)-one]
- pIC50 [1]: 7.59
- pIC50 [2]: 5.19

- pIC50 [3]: 7.38
SMILES: CN1CCN(Cc2cccc(Cn3cnc4cc(-c5ccc(Cl)cc5)sc4c3=O)c2)CC1 [Example 5, 6-(4-Chlorophenyl)-3-{3-[(4-methylpiperazin-1-yl)methyl]benzyl}thieno[3,2-d]pyrimidin-4(3H)-one]

- melting point: 202 to 203 °C
SMILES: CN1CCC(Oc2cccc(Cn3cnc4cc(-c5ccc(Cl)cc5)sc4c3=O)n2)CC1 [Example 11, 6-(4-Chlorophenyl)-3-({6-[(1-methylpiperidin-4-yl)oxy]pyridin-2-yl}methyl)thieno[3,2-d]pyrimidin-4(3H)-one]
